Source: ChEMBL document CHEMBL4765432, “Design and synthesis of novel Flavone-based histone deacetylase inhibitors antagonizing activation of STAT3 in breast cancer” (Eur J Med Chem, 2020)
The source made the active and inactive calls. The calls are words filed in the database; no cut-off is given here.

Tests used:
4T1 [1] = experiment: Cytotoxicity against mouse 4T1 cells assessed as reduction in cell viability incubated for 48 hrs by MTT assay; assay type: functional, cell-based; details: 4T1, 48 h
MDA-MB-231 [2] = experiment: Induction of apoptosis in human MDA-MB-231 cells assessed as viable cells at 5 uM incubated for 72 hrs by annexinV-FITC and PI staining based flow cytometry analysis (reference value: 90.3 %); assay type: functional; details: read-out: Activity
4T1 [3] = experiment: Induction of cell cycle arrest in mouse 4T1 cells assessed as S phase accumulation at 2 uM incubated for 24 hrs by PI staining based flow cytometry analysis (reference value: 19.43 %); assay type: functional
Histone deacetylase 8 = Histone deacetylase 8 (Homo sapiens, UniProt Q9BY41); experiment: (§1) Inhibition of recombinant human N-terminal GST-tagged full length HDAC-8 expressed in baculovirus infected in Sf9 cells using Boc-Lys (q-Ac)-AMC as substrate incubated for 10 mins followed by substrate addition and measured after 30 mins by fluorescence based assay
[4] = AUC (0 to infinity) in Sprague-Dawley rat at 20 mg/kg, iv measured upto 12 hrs by LC-MS/MS analysis; assay type: ADME, organism-based; design: route intravenous, dose 20 mg/kg, time <=12; details: in vivo
Histone deacetylase 9 = Histone deacetylase 9 (Homo sapiens, UniProt Q9UKV0); experiment: as §1, with “HDAC-9 (548 to end residues)” for “full length HDAC-8”, “cells at 10 uM” for “cells”, “assay relative to control” for “assay”; details: time 40.0 min
[5] = Oral bioavailability in Sprague-Dawley rat at 20 mg/kg measured upto 12 hrs by LC-MS/MS analysis; assay type: ADME, organism-based; details: in vivo
4T1 [6] = experiment: Induction of apoptosis in mouse 4T1 cells assessed as viable cells at 2.5 uM incubated for 72 hrs by annexinV-FITC and PI staining based flow cytometry analysis (reference value: 91.1 %); assay type: functional; details: read-out: Activity
MDA-MB-231 [7] = experiment: Induction of apoptosis in human MDA-MB-231 cells assessed as necrotic cells at 5 uM incubated for 72 hrs by annexinV-FITC and PI staining based flow cytometry analysis (reference value: 0.330 %); assay type: functional
MDA-MB-231 [8] = experiment: Induction of apoptosis in human MDA-MB-231 cells assessed as effect on p53 expression at 0.5 to 10 uM incubated for 48 hrs by Western blot analysis; assay type: functional, cell-based; details: dose 0.5-10 µM
4T1 [9] = experiment: Induction of cell cycle arrest in mouse 4T1 cells assessed as G0/G1 phase accumulation at 1 uM incubated for 24 hrs by PI staining based flow cytometry analysis (reference value: 42.06 %); assay type: functional

Sequence of Histone deacetylase 9 (Q9UKV0 whole entry): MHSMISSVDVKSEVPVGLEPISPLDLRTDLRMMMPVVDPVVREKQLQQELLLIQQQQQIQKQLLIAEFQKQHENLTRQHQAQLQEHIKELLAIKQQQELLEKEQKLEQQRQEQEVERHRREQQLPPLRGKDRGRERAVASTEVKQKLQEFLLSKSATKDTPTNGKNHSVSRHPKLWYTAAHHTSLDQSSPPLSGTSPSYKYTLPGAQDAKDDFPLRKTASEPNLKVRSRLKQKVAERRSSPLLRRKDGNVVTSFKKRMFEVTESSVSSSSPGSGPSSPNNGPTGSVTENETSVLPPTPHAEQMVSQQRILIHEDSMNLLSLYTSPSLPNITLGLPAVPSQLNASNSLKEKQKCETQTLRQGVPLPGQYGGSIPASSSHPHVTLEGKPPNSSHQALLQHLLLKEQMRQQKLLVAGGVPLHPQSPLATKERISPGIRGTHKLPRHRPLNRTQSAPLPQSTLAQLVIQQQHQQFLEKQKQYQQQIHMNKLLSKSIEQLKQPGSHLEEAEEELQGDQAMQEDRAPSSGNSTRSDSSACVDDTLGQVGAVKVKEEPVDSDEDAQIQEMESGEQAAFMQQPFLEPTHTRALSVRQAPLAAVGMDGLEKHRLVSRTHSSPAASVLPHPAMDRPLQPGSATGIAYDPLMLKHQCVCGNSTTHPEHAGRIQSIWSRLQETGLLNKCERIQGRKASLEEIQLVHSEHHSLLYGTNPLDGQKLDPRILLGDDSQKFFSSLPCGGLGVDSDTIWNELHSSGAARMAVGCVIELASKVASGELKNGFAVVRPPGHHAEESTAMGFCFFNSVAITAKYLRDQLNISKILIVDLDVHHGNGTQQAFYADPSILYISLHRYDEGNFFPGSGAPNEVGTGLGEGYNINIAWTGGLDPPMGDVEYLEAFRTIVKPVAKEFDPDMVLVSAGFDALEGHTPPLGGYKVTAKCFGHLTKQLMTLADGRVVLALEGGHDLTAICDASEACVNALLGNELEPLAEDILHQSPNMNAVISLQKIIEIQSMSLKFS
Sequence of Histone deacetylase 8 (Q9BY41 whole entry): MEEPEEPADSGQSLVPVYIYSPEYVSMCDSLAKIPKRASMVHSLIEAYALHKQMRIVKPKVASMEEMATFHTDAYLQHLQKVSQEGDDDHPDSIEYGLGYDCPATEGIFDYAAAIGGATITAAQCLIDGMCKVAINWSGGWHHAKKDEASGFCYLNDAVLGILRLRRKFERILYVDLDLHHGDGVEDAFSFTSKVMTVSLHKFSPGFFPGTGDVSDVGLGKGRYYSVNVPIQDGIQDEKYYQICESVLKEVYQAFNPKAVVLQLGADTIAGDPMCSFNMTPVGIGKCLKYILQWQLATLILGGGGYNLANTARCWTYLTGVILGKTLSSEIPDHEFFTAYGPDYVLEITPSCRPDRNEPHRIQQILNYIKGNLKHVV

## CN(C)CCOc1ccc(-c2cc(=O)c3c(O)cc(OCCCCCC(=O)NO)cc3o2)cc1.Cl
4T1 [1]
  IC50: 1.99 µM
MDA-MB-231 [2]
  viability at 5 µM: 17.2%
4T1 [3]
  Activity: 25.58%
Histone deacetylase 8
  IC50: 2.5 µM
[4]
  AUC(0-inf): 2840 ng·h/mL
Histone deacetylase 9
  inhibition: 26%
[5]
  bioavailability: 57.8%
4T1 [6]
  viability at 2.5 µM: 32.9%
MDA-MB-231 [7]
  Activity: 0.06%
MDA-MB-231 [8]
  Activity: inactive
4T1 [9]
  Activity: 49.62%
